Patent US10660967B2, “Curcumin conjugates and methods of use thereof” (priority 2016, dated 2020)

Test system: carrageenan induced paw edema
Assay: Anti-inflammatory activity: acute carrageenan induced paw edema in rats
Format: in vivo, Wister rats
Conditions: 10 mg kg^−1 indomethacin mol equivalent; for % inhibition of edema / Mean edema thickness: intraperitoneally; for Mean edema thickness: mean ± SE; for Potency (% inhibition of edema relative to that of indomethacin reference standard): at 4 h effect
Protocol: The anti-inflammatory activity of the tested compounds was determined in vivo by the acute carrageenan induced paw edema standard method in rats. See, Naumov, et al., Bioorg. Med. Chem. Lett, 25: 2314-2320 (2015), Tiwari, et al., Org. Biomol. Chem, 12: 7238-7249 (2014), Girgis, et al., Eur. J. Med. Chem, 50: 1-8 (2012), Barsoum, et al., Eur. J. Med. Chem, 44: 2172-2177 (2009), Girgis, et al., Eur. J. Med. Chem, 44: 1972-1977 (2009), Girgis, et al., Eur. J. Med. Chem, 44: 1257-1264 (2009), Girgis, et al., Eur. J. Med. Chem, 44: 91-100 (2009), Girgis, et al., Eur. J. Med. Chem, 43: 2116-2121 (2008), Girgis, et al., Bioorg. Med. Chem, 14: 8527-8532 (2006), and Barsoum, et al., Bioorg. Med. Chem, 14: 3929-3937 (2006).
Adult Wister rats of either sex (pregnant female animals were excluded) weighing 120-150 g were divided into 18 groups of 6 animals each. […] The control group was given DMSO only. Carrageenan paw edema was induced by subcutaneous injection of freshly prepared 1% solution of carrageenan in saline (0.9%, 0.1 ml per rat) into subplantar tissue of the right hind paw of rats. The thickness of the paw was measured (in mm) after successive time intervals (1, 2,3,4 and 24 h) and compared with the initial hind paw thickness of each rat for determining the edema thickness. Data were collected, checked, revised and analyzed. Quantitative variables from normal distribution were expressed as means±SE “standard error”. The anti-inflammatory activity was expressed as percentage inhibition of edema thickness in treated animals in comparison with the control group according to eqn. (1)
Where, Vc and Vt are the mean of edema paw thickness for the control and tested compound treated animal groups, respectively.

SMILES | % inhibition of edema (1 h) [%] | Mean edema thickness (1 h) [mm] | % inhibition of edema (2 h) [%] | Mean edema thickness (2 h) [mm] | % inhibition of edema (3 h) [%] | Mean edema thickness (3 h) [mm] | % inhibition of edema (4 h) [%] | Mean edema thickness (4 h) [mm] | % inhibition of edema (24 h) [%] | Mean edema thickness (24 h) [mm] | Potency (% inhibition of edema relative to that of indomethacin reference standard)
COc1cc(/C=C/C(=O)CC(=O)/C=C/c2ccc(OC(=O)[C@H](CCSC)NC(=O)OC(C)(C)C)c(OC)c2)ccc1OC(=O)[C@H](CCSC)NC(=O)OC(C)(C)C [Compound 28] | 34 | 1.59 ± 0.21 | 36 | 1.31 ± 0.18 | 44 | 1.01 ± 0.17 | 88 | 0.17 ± 0.02 | 23 | 0.64 ± 0.05 | 101
COc1cc(/C=C/C(=O)CC(=O)/C=C/c2ccc(OC(=O)[C@@H](CCSC)NC(=O)OC(C)(C)C)c(OC)c2)ccc1OC(=O)[C@@H](CCSC)NC(=O)OC(C)(C)C [Compound 29] | 58 | 1.01 ± 0.14 | 69 | 0.63 ± 0.11 | 74 | 0.47 ± 0.08 | 89 | 0.15 ± 0.06 | 41 | 0.49 ± 0.09 | 102
COc1cc(/C=C/C(=O)CC(=O)/C=C/c2ccc(OC(=O)[C@@H](NC(=O)OC(C)(C)C)C(C)C)c(OC)c2)ccc1OC(=O)[C@@H](NC(=O)OC(C)(C)C)C(C)C [Compound 30] | 13 | 2.09 ± 0.21 | 24 | 1.57 ± 0.19 | 25 | 1.34 ± 0.11 | 43 | 0.80 ± 0.08 | 30 | 0.58 ± 0.10 | 49
CC[C@H](C)[C@H](NC(=O)OC(C)(C)C)C(=O)Oc1ccc(/C=C/C(=O)CC(=O)/C=C/c2ccc(OC(=O)[C@@H](NC(=O)OC(C)(C)C)[C@@H](C)CC)c(OC)c2)cc1OC [Compound 31] | 33 | 1.61 ± 0.11 | 38 | 1.27 ± 0.07 | 49 | 0.91 ± 0.05 | 51 | 0.69 ± 0.02 | 41 | 0.49 ± 0.03 | 59
COc1cc(/C=C/C(=O)CC(=O)/C=C/c2ccc(OC(=O)[C@H](CCC(N)=O)NC(=O)OC(C)(C)C)c(OC)c2)ccc1OC(=O)[C@H](CCC(N)=O)NC(=O)OC(C)(C)C [Compound 32] | 10 | 2.16 ± 0.17 | 16 | 1.73 ± 0.09 | 32 | 1.22 ± 0.12 | 41 | 0.83 ± 0.06 | 57 | 0.36 ± 0.02 | 47
COc1cc(/C=C/C(=O)CC(=O)/C=C/c2ccc(OC(=O)CN)c(OC)c2)ccc1OC(=O)CN.Cl.Cl [Compound 33] | 66 | 0.82 ± 0.09 | 67 | 0.69 ± 0.03 | 74 | 0.46 ± 0.03 | 88 | 0.17 ± 0.01 | 42 | 0.48 ± 0.03 | 101
COc1cc(/C=C/C(=O)CC(=O)/C=C/c2ccc(OC(=O)[C@@H](N)Cc3ccccc3)c(OC)c2)ccc1OC(=O)[C@@H](N)Cc1ccccc1.Cl.Cl [Compound 34] | 46 | 1.29 ± 0.14 | 51 | 1.01 ± 0.11 | 63 | 0.66 ± 0.08 | 84 | 0.22 ± 0.03 | 20 | 0.66 ± 0.04 | 97
COc1cc(/C=C/C(=O)CC(=O)/C=C/c2ccc(OC(=O)[C@H](C)N)c(OC)c2)ccc1OC(=O)[C@H](C)N.Cl.Cl [Compound 35] | 37 | 1.51 ± 0.12 | 42 | 1.19 ± 0.10 | 53 | 0.85 ± 0.09 | 66 | 0.47 ± 0.04 | 16 | 0.70 ± 0.06 | 76
COc1cc(/C=C/C(=O)CC(=O)/C=C/c2ccc(OC(=O)C(C)N)c(OC)c2)ccc1OC(=O)C(C)N.Cl.Cl (stereo not drawn) [Compound 36] | 54 | 1.11 ± 0.08 | 54 | 0.94 ± 0.09 | 55 | 0.81 ± 0.05 | 84 | 0.22 ± 0.02 | 28 | 0.60 ± 0.06 | 97
COc1cc(/C=C/C(=O)CC(=O)/C=C/c2ccc(OC(=O)[C@@H](C)N)c(OC)c2)ccc1OC(=O)[C@@H](C)N.Cl.Cl [Compound 37] | 61 | 0.95 ± 0.11 | 62 | 0.79 ± 0.13 | 74 | 0.46 ± 0.09 | 96 | 0.06 ± 0.01 | 29 | 0.59 ± 0.07 | 110
COc1cc(/C=C/C(=O)CC(=O)/C=C/c2ccc(OC(=O)CCN)c(OC)c2)ccc1OC(=O)CCN.Cl.Cl [Compound 38] | 69 | 0.74 ± 0.09 | 71 | 0.60 ± 0.06 | 77 | 0.42 ± 0.03 | 89 | 0.16 ± 0.04 | 72 | 0.23 ± 0.01 | 102
COc1cc(/C=C/C(=O)CC(=O)/C=C/c2ccc(OC(=O)[C@@H](N)CCSC)c(OC)c2)ccc1OC(=O)[C@@H](N)CCSC.Cl.Cl [Compound 39] | 64 | 0.86 ± 0.13 | 70 | 0.62 ± 0.11 | 73 | 0.49 ± 0.07 | 97 | 0.04 ± 0.01 | 36 | 0.53 ± 0.03 | 111
